Measurements reported in article PMC6613030, “LC-ESI-MS/MS Phenolic Profile of Volutaria lippii (L.) Cass. Extracts and Evaluation of Their In Vitro Antioxidant, Antiacetylcholinesterase, Antidiabetic, and Antibacterial Activities” (Evidence-based Complementary and Alternative Medicine : eCAM, 2019).
Marks after values point to notes of the source that are not given here.

Key:
[1] = DPPH radical scavenging assay; conditions: 30 min in the dark, absorbance at 517 nm
Procedure: The DPPH radical scavenging activity of different fractions of V. lippii was evaluated following the procedure described by Les et al. [14]. […] The final concentrations in the reaction's mixture were 0.005-0.5 mg/mL. Each mixture was shaken and allowed in the dark for 30 min at room temperature. The blank was prepared as above without any extract and the BHT was used as positive control. […] The PI was calculated using the following equation:(1) PI%=Ablank – Asample/Ablank×100 where Ablank is the absorbance of the blank and Asample is the absorbance of the test sample.
The calibration curve for scavenging percentage against extract concentration was plotted and the IC50 (half maximal inhibitory concentration) value of each sample was established.

[2] = Reducing power assay (FRAP); conditions: effective concentration at which the absorbance is 0.5 (700 nm)
Procedure: The reducing power of all fractions was evaluated using the procedure of Yildirim et al., and BHT was used as positive control. A 1 mL of different concentrations of each V. lippii sample (5, 10, 25, 50,100 μg/mL) was mixed with 2.5 mL of 1% potassium ferricyanide and 2.5 mL of sodium phosphate buffer (0.2 M, pH= 6.6). The mixture was incubated for 20 min at 50°C and then 2.5 mL of 10% trichloroacetic acid were added and centrifuged for 10 minutes. 2.5 mL of the supernatant were mixed with 0.5 mL of ferric chloride solution (0.1%) and 2.5 mL of distilled water. The absorbance of the mixture was measured at 700 nm.

pancreatic α-amylase = target: T1, pancreatic α-amylase (Sus scrofa, UniProt P00690); assay: biochemical
T1 construct: purchased Merck (Sigma-Aldrich, Steinheim, Germany)
T1 sequence (P00690 16-511): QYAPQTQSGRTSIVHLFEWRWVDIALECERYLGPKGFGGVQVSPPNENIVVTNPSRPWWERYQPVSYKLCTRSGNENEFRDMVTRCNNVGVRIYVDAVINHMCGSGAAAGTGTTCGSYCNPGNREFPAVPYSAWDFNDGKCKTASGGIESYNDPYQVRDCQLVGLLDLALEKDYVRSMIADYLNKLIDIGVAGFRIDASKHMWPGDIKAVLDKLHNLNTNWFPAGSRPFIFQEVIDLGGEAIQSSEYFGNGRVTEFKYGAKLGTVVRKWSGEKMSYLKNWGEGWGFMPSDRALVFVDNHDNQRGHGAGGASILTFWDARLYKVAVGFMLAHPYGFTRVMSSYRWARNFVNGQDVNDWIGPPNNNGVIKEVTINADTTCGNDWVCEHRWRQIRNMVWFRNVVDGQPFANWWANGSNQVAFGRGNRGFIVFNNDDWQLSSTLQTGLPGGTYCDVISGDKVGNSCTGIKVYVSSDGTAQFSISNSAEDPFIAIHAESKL
Procedure: The in vitroα-amylase inhibitory assay of all fractions was performed by the previous method described by Gella et al.. […] Percentage inhibition (PI) was calculated by the following expression:(3) PI%=Acontrol – Asample/Acontrol×100 where Acontrol is the absorbance of the control and Asample is the absorbance of the test sample.

Bacillus thuringiensis = assay: Antibacterial activity, agar disc diffusion; assay type: cell-based; conditions: 10 μg / disc, positive control
Procedure: (§1) The V. lippii fractions were assessed against a five bacterial strains: Gram-negative: Salmonella enterica (CIP 8039) and Escherichia coli (ATCC 8739), Gram-positive: Staphylococcus aureus (ATCC 6538), Bacillus thuringiensis, and Enterococcus faecalis (ATCC 29212). Bacteria not obtained from an ATCC collection were acquired from the Microbiology Department, Faculty of Science, University of Sfax (Tunisia). Bacterial strains were cultured in Mueller-Hinton agar (MHA) for 24 h at 37°C.
(§2) The disc diffusion method was employed for the determination of antibacterial activities of V. lippii fractions according to the method described by Berghe and Vlietinck. Antibacterial activities were evaluated by measuring the diameters of the inhibition zones against the test organisms and compared to penicillin (10 μg per disk) as the positive control. Tests were carried out in triplicate.

[3] = tested on: Enterococcus faecalis (ATCC 29212); assay: Antibacterial activity, agar disc diffusion; assay type: cell-based; conditions: 10 μg / disc, positive control
Procedure: as §1, §2

[4] = tested on: Escherichia coli (ATCC 8739); assay: Antibacterial activity, agar disc diffusion; assay type: cell-based; conditions: 10 μg / disc, positive control
Procedure: as §1, §2

[5] = tested on: Staphylococcus aureus (ATCC 6538); assay: Antibacterial activity, agar disc diffusion; assay type: cell-based; conditions: 10 μg / disc, positive control
Procedure: as §1, §2

For `Cc1cc(C(C)(C)C)c(O)c(C(C)(C)C)c1` [BHT, butylated hydroxytoluene], the “DPPH IC50” value [1] was 13.00±0.57^a μg/mL and the “Reducing power EC50” value [2] was 43.35±0.95^a μg/mL.

In the case of `C[C@H]1O[C@H](O[C@H]2[C@H](O)[C@@H](O)[C@@H](O[C@H]3[C@H](O)[C@@H](O)C(O)O[C@@H]3CO)O[C@@H]2CO)[C@H](O)[C@@H](O)[C@@H]1N[C@H]1C=C(CO)[C@@H](O)[C@H](O)[C@H]1O` (stereo partly drawn) [Acarbose, acarbose], the inhibition at 2.85 µg/mL (pancreatic α-amylase; concentration 2.85 μg/mL) is reported as 29.8 ± 0.07%, the inhibition at 5.71 µg/mL (pancreatic α-amylase; concentration 5.71 μg/mL) is reported as 51.52 ± 0.02% and the inhibition at 11.42 µg/mL (pancreatic α-amylase; concentration 11.42 μg/mL) is reported as 86.62 ± 0.04%.

For penicillin, the “Inhibition zone in diameter” value (Bacillus thuringiensis) was 18.0±0.4^d mm, the “Inhibition zone in diameter” value [3] was 16.0±0.2^c mm and the “Inhibition zone in diameter” value [4] was 16.3±0.1^d mm. For the same compound, the “Inhibition zone in diameter” value [5] was 14.1±0.5^c mm.
